In patent US9023789B2, “Amylin analogs and pharmaceutical compositions thereof” (Novo Nordisk A/S, priority 2012, dated 2015):
Numbered stars: 1 amine (or outer) side, 2 acyl side, 3 side chain; on linkers, the order of the positions; unused ones are H or OH. Bridge positions count the residues as written; N and C are the ends. Side chains are listed from the residue outwards. Peptide text beside a SMILES is read from it. * marks the point of attachment. C20 diacid = O=C(O)CCCCCCCCCCCCCCCCCCC(=O)*; γGlu = O=C(O)[C@H](CCC(=O)[*:2])N[*:1]; AEEA = NCCOCCOCC(=O)O

What was measured:
[1] = target: T1, human calcitonin (a) receptor in BHK570 cells (Homo sapiens, UniProt P30988); assay: ASSAY (II)a functional assay, human calcitonin receptor (CRE luciferase); assay type: cell-based; details: read-out: hCTR funct. EC50
T1 construct: expressed in transfected cells
T1 sequence (P30988 25-474): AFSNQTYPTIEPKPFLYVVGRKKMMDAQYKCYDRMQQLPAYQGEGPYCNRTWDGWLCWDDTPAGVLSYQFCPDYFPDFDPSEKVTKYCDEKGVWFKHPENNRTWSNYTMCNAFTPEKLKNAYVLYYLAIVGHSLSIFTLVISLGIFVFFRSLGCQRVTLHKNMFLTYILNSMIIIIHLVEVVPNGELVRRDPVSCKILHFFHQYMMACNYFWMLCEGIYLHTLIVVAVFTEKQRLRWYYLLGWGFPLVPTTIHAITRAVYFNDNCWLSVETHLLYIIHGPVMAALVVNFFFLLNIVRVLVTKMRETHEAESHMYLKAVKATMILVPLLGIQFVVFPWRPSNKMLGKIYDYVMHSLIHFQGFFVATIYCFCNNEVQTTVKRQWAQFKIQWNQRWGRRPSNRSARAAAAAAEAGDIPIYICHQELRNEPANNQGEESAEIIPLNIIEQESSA
Method in brief: (§1)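 Readout is luminescence from a cAMP-responsive CRE-luc reporter, developed with LucLite for 30 min at room temperature. Cells were treated for 3 h at 37 °C in 10% FBS/DMEM buffered with 10 mM Hepes (pH 7.4).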

[2] = target: T2, human calcitonin receptor (Homo sapiens, UniProt P30988); assay: ASSAY (VII) binding to the human calcitonin receptor (SPA, 125I-Calcitonin); details: read-out: hCTR bind IC50;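 note: cell membranes (35 ng/µL) combined with SPA beads in 40 µL of pH 7.4 Hepes buffer, 384-well format, signal counted on a TopCounter instrument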
T2 construct: expressed in transfected cells
T2 sequence (P30988 25-474): T1 sequence (P30988 25-474)

[3] = target: T3, human amylin 3(a) receptor (human calcitonin receptor + RAMP-3) in BHK570 cells (Homo sapiens, UniProt O60896+P30988); assay: ASSAY (II)a functional assay, human amylin receptor (CRE luciferase); assay type: cell-based; details: for EC50: human amylin receptor functional potency, assay (II), read-out: hAmylin-R funct. EC50
T3 construct: expressed in transfected cells
T3 sequence (O60896 24-148, one chain of several): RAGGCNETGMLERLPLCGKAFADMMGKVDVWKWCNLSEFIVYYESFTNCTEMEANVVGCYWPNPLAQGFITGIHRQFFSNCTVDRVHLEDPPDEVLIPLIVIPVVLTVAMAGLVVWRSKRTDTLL
Method in brief: as §1

[4] = hCTR funct. EC50 divided by hAmylin-R funct. EC50
[5] = hCTR funct. EC50 over hAmylin-R funct. EC50
[6] = human functional selectivity: hCTR funct. EC50 / hAmylin-R funct. EC50

EC50 [1] [nM] | IC50 [2] [nM] | Ratio hCT/hAmylin funct. ([3]; hCTR funct. EC50 / hAmylin-R funct. EC50) | Ratio hCT/hAmylin funct. [3, 4] | Ratio hCT/hAmylin funct. [3, 5] | EC50 [3] [nM] | Ratio hCT/hAmylin funct. [3, 6] | SMILES
0.537 | 29.2 | 4.9 | 4.9 | 4.9 | 0.109 | 4.9 | CC[C@H](C)[C@H](NC(=O)[C@H](C)NC(=O)CNC(=O)[C@H](Cc1ccccc1)NC(=O)[C@H](CC(N)=O)NC(=O)[C@@H]1CCCN1C(=O)[C@H](CO)NC(=O)[C@H](CO)NC(=O)[C@H](Cc1c[nH]cn1)NC(=O)[C@H](CCCNC(=N)N)NC(=O)[C@H](CC(C)C)NC(=O)[C@H](Cc1ccccc1)NC(=O)[C@H](C)NC(=O)[C@H](C)NC(=O)[C@H](CC(C)C)NC(=O)[C@H](CCCNC(=N)N)NC(=O)[C@H](CCC(N)=O)NC(=O)[C@@H](NC(=O)[C@H](C)NC(=O)[C@@H]1CSSC[C@H](NC(=O)[C@H](CCCNC(=N)N)NC(=O)CNC(=O)CC[C@H](NC(=O)CCCCCCCCCCCCCCCCCCC(=O)O)C(=O)O)C(=O)N[C@@H](CC(N)=O)C(=O)N[C@@H]([C@@H](C)O)C(=O)N[C@@H](C)C(=O)N[C@@H]([C@@H](C)O)C(=O)N1)[C@@H](C)O)C(=O)N1CCC[C@H]1C(=O)N[C@@H](CO)C(=O)N[C@@H](CO)C(=O)N[C@H](C(=O)N[C@@H](CC(N)=O)C(=O)N[C@H](C(=O)NCC(=O)N[C@@H](Cc1c[nH]cn1)C(=O)N[C@@H](CC(N)=O)C(=O)N[C@H](C(=O)N[C@@H](Cc1ccc(O)cc1)C(N)=O)[C@@H](C)O)C(C)C)[C@@H](C)O [Example 101] ({C20 diacid-γGlu}-GRCNTATCATQRLAAFLRHSSPNFGAIPSSTNVGHNTY-NH2; disulfide 3-8)
5.46 | 48.7 |  | 15.0 | 15.0 | 0.364 | 15.0 | CC[C@H](C)[C@H](NC(=O)[C@H](C)NC(=O)CNC(=O)[C@H](Cc1ccccc1)NC(=O)[C@H](CC(N)=O)NC(=O)[C@@H]1CCCN1C(=O)[C@H](CO)NC(=O)[C@H](CO)NC(=O)[C@H](Cc1c[nH]cn1)NC(=O)[C@H](CCCNC(=N)N)NC(=O)[C@H](CC(C)C)NC(=O)[C@H](Cc1ccccc1)NC(=O)[C@H](CC(N)=O)NC(=O)[C@H](C)NC(=O)[C@H](CC(C)C)NC(=O)[C@H](CCCNC(=N)N)NC(=O)[C@H](CCC(N)=O)NC(=O)[C@@H](NC(=O)[C@H](C)NC(=O)[C@@H]1CSSC[C@H](NC(=O)[C@@H](N)CCCCNC(=O)CC[C@H](NC(=O)CCCCCCCCCCCCCCCCCCC(=O)O)C(=O)O)C(=O)N[C@@H](CC(N)=O)C(=O)N[C@@H]([C@@H](C)O)C(=O)N[C@@H](C)C(=O)N[C@@H]([C@@H](C)O)C(=O)N1)[C@@H](C)O)C(=O)N1CCC[C@H]1C(=O)N[C@@H](CO)C(=O)N[C@@H](CO)C(=O)N[C@H](C(=O)N[C@@H](CC(N)=O)C(=O)N[C@H](C(=O)NCC(=O)N[C@@H](CO)C(=O)N[C@@H](CCCCN)C(=O)N[C@H](C(=O)N[C@@H](Cc1ccc(O)cc1)C(N)=O)[C@@H](C)O)C(C)C)[C@@H](C)O [Example 35] (H-K([γGlu-C20 diacid])CNTATCATQRLANFLRHSSPNFGAIPSSTNVGSKTY-NH2; disulfide 2-7; N-terminus assumed)
0.887 | 3.44 |  | 8.1 | 8.1 | 0.109 | 8.1 | CC[C@H](C)[C@H](NC(=O)[C@H](C)NC(=O)CNC(=O)[C@H](Cc1ccccc1)NC(=O)[C@H](CC(N)=O)NC(=O)[C@@H]1CCCN1C(=O)[C@H](CO)NC(=O)[C@H](CO)NC(=O)[C@H](Cc1c[nH]cn1)NC(=O)[C@H](CCCNC(=N)N)NC(=O)[C@H](CC(C)C)NC(=O)[C@H](Cc1ccccc1)NC(=O)[C@H](CO)NC(=O)[C@H](C)NC(=O)[C@H](CC(C)C)NC(=O)[C@H](CCCNC(=N)N)NC(=O)[C@H](CCC(N)=O)NC(=O)[C@@H](NC(=O)[C@H](C)NC(=O)[C@@H]1CSSC[C@H](NC(=O)[C@@H](N)CCCCNC(=O)CC[C@H](NC(=O)CC[C@H](NC(=O)CCCCCCCCCCCCCCCCCCC(=O)O)C(=O)O)C(=O)O)C(=O)N[C@@H](CC(N)=O)C(=O)N[C@@H]([C@@H](C)O)C(=O)N[C@@H](C)C(=O)N[C@@H]([C@@H](C)O)C(=O)N1)[C@@H](C)O)C(=O)N1CCC[C@H]1C(=O)N[C@@H](CO)C(=O)N[C@@H](CO)C(=O)N[C@H](C(=O)N[C@@H](CC(N)=O)C(=O)N[C@H](C(=O)NCC(=O)N1CCC[C@H]1C(=O)N[C@@H](CCC(=O)O)C(=O)N[C@H](C(=O)N[C@@H](Cc1ccc(O)cc1)C(N)=O)[C@@H](C)O)C(C)C)[C@@H](C)O [Example 120] (H-K([γGlu-γGlu-C20 diacid])CNTATCATQRLASFLRHSSPNFGAIPSSTNVGPETY-NH2; disulfide 2-7 (inferred); N-terminus assumed)
6.34 | 25.3 |  | 29.9 | 29.9 | 0.212 | 29.9 | CC[C@H](C)[C@H](NC(=O)[C@H](C)NC(=O)CNC(=O)[C@H](Cc1ccccc1)NC(=O)[C@H](CC(N)=O)NC(=O)[C@@H]1CCCN1C(=O)[C@H](CO)NC(=O)[C@H](CO)NC(=O)[C@H](Cc1c[nH]cn1)NC(=O)[C@H](CCCNC(=N)N)NC(=O)[C@H](CC(C)C)NC(=O)[C@H](Cc1ccccc1)NC(=O)[C@H](CC(N)=O)NC(=O)[C@H](C)NC(=O)[C@H](CC(C)C)NC(=O)[C@H](CCCNC(=N)N)NC(=O)[C@H](CCC(N)=O)NC(=O)[C@@H](NC(=O)[C@H](C)NC(=O)[C@@H]1CSSC[C@H](NC(=O)[C@@H](N)CCCCNC(=O)COCCOCCNC(=O)CC[C@H](NC(=O)CCCCCCCCCCCCCCCCCCC(=O)O)C(=O)O)C(=O)N[C@@H](CC(N)=O)C(=O)N[C@@H]([C@@H](C)O)C(=O)N[C@@H](C)C(=O)N[C@@H]([C@@H](C)O)C(=O)N1)[C@@H](C)O)C(=O)N1CCC[C@H]1C(=O)N[C@@H](CO)C(=O)N[C@@H](CO)C(=O)N[C@H](C(=O)N[C@@H](CC(N)=O)C(=O)N[C@H](C(=O)NCC(=O)N[C@@H](CO)C(=O)N[C@@H](CCC(=O)O)C(=O)N[C@H](C(=O)N[C@@H](Cc1ccc(O)cc1)C(N)=O)[C@@H](C)O)C(C)C)[C@@H](C)O [Example 26] (H-K([AEEA-γGlu-C20 diacid])CNTATCATQRLANFLRHSSPNFGAIPSSTNVGSETY-NH2; disulfide 2-7; N-terminus assumed)
